Source: patent US7053175B1, “Synthetic peptides useful in biological assays for detecting infections caused by group O HIV-1 viruses” (Bio-Rad Pasteur, priority 1997, dated 2006)
No end group written: not given here.

Tested on: serum samples from patients infected with group O HIV-1 retroviruses
Assay: Immunoenzymatic test: Test No. 2 (immunoreactivity with diluted sera)
Assay type: binding, human
Conditions: for Number of samples: sera of Table V; for Number of samples / ABSORBANCE (OD): solid phase peptide 2 μg/ml; for ABSORBANCE (OD): cyclized; for immunoreactivity compared with the reference peptides (in words): summary of Tables V and VI
Source text: The serum samples from patients infected with group O HIV-1 retroviruses were obtained by the Yaounde Pasteur Centre in Cameroon and were serotyped group O according to the serological algorithm described in AIDS (1977), 11, pp. 445-453. A genotyped sample (Maryland) is obtained from the United States. These samples were previously diluted in negative human serum at the dilutions given in Table V, in order to have a sufficient volume for the different immunoreactivity tests.
The synthetic peptides used were dissolved in water at a concentration of 1 mg/ml (stock solution). For the solid phase sensitization step (“coating”), the procedure was carried out as described for Example 2.
The serum samples were diluted 1/5 with a skimmed milk solution (citrate buffer supplemented with 0.01% of phenol red, 0.25% of chloroform and 0.25% of Kathon®), deposited in the wells of plates and incubated for 30 min at 40° C.
After washing with a Tris-NaCl buffer solution pH 7.4 containing 0.1% of Tween® 20 and 0.001% of sodium merthiolate, 100 μl of a solution of conjugate consisting of horseradish peroxidase-labelled anti-human IgG and IgM goat antibodies, containing as preservative 0.01% of sodium merthiolate, in solution in a citrate buffer solution supplemented with 30% glycerol and 25% normal foetal calf serum, were added to each well of the plates and then they were incubated for 30 min at 40° C.
After washing with a Tris-NaCl buffer solution pH 7.4 containing 0.1% of Tween® 20 and 0.001% of sodium merthiolate, the colour was developed as described in Example 2.
The relative absorbance (OD) (A490-A620) read in each well is proportional to the immunoreactivity of each peptide. It indicates the ability of each peptide to react with the biological sample with which the test is carried out.
The reactivity of the peptides of the invention, peptides No. 10 (14B), No. 11 (18B), No. 12 (19B), No. 14 (21B), No. 15 (22B), No. 16 (23B) all in cyclized form, was compared with that of three homologous synthetic peptides having, as sequence, a portion of the natural sequence of the envelope (env) of a group O HIV-1 retrovirus. These peptides are two peptides derived from the VAU isolate—the peptide VAU 22 AA and the peptide VAU 35 AA—and the peptide MVP 5180 (designated “MVP 5180” in Table V). The peptides VAU 22 AA and VAU 35 AA (whose structure is indicated in Example 2) and the peptide MVP 5180 comprise an immunodominant epitope of gp41.
All these peptides were used in cyclized form. The sequence of the MVP 5180 peptide is the following:
For each peptide tested, the samples were arranged into four classes (a, b, c and d) corresponding to various levels of relative absorbance read at the wavelengths A492-A620: • for a: OD<0.100, • for b: 0.100<OD<0.500, • for c: 0.500<OD<1.000, • for d: OD>1.000, thus making it possible to evaluate the degree of immunoreactivity of the peptides.

Sequence	Number of samples (CLASS A (a: OD<0.100))	Number of samples (CLASS B (b: 0.100<OD<0.500))	Number of samples (CLASS C (c: 0.500<OD<1.000))	Number of samples (CLASS D (d: OD>1.000))	ABSORBANCE (OD) (serum 258 OUDI at 1/100)	ABSORBANCE (OD) (serum 625 at 1/50)	ABSORBANCE (OD) (serum 3600 at 1/100)	ABSORBANCE (OD) (serum 3613 at ¼00)	ABSORBANCE (OD) (serum 3653 at 1/10)	ABSORBANCE (OD) (serum 4280 at 1/50)	ABSORBANCE (OD) (serum 6111 at 1/100)	ABSORBANCE (OD) (serum DJOU at 1/100)	ABSORBANCE (OD) (serum DO15 at 1/100)	ABSORBANCE (OD) (serum MBASSI at 1/100)	ABSORBANCE (OD) (serum Maryland at ¼00)	ABSORBANCE (OD) (serum NGO at 1/50)	ABSORBANCE (OD) (serum NJEM at 1/100)	ABSORBANCE (OD) (serum WANG at 1/50)	immunoreactivity compared with the reference peptides (in words)
RLQALETLIQNQQRLNLWGCKGKLICYTSVKWNTS (cysteine pairing not given here) [MVP 5180, reference compound]	1	12	1	0	0.116	0.202	0.206	0.478	0.401	0.382	0.226	0.203	0.673	0.248	0.241	0.184	0.146	0.075	
LNQQRLLNSWGCKGRLVCYTSV [PEPTIDE No. 14 (21B)]	1	3	4	6	0.764	2.045	0.716	1.508	0.072	0.286	0.850	1.998	3.357	2.134	0.734	0.157	0.277	2.397	most immunoreactive
RLNSWGCKGRLVCYTSV [PEPTIDE No. 16 (23B)]	2	2	1	9	1.692	1.791	0.933	1.679	0.406	0.033	1.009	2.166	3.038	2.683	1.229	0.110	0.025	1.290	most immunoreactive
ALETLLQNQQLLNSWGCRGRLVCYTSVRWNET [PEPTIDE No. 11 (18B)]	0	9	4	1	0.373	0.338	0.360	0.837	0.337	0.686	0.348	0.482	0.859	1.150	0.370	0.335	0.811	0.234	
LLNSWGCKGRLVCYTS [PEPTIDE No. 10 (14B)]	3	2	5	4	0.587	0.838	0.482	1.108	0.347	0.022	0.596	1.268	1.613	1.217	0.524	0.067	0.032	0.698	
RALETLLNQQRLLNSWGCKGRLVCYTSV [PEPTIDE No. 15 (22B)]	0	2	4	8	1.184	2.122	0.801	1.627	0.380	0.689	1.207	2.088	3.693	2.010	0.844	0.315	0.939	2.680	most immunoreactive
ALETLLQNQQLLNIWGCRGRLVCYTSVRWNET [PEPTIDE No. 12 (19B)]	0	11	2	1	0.226	0.264	0.249	0.773	0.247	0.201	0.202	0.419	1.286	0.747	0.285	0.193	0.391	0.124	
